Measured values as given in ChEMBL document CHEMBL5291721, “A preclinical secondary pharmacology resource illuminates target-adverse drug reaction associations of marketed drugs” (Nat Commun, 2023).

Experiments:
D(1A) dopamine receptor = D(1A) dopamine receptor (Homo sapiens, UniProt P21728); assay type: functional, cell-based
[1] = target: Beta-2 adrenergic receptor (Homo sapiens, UniProt P07550); assay type: functional, cell-based
[2] = target: T1, 5-hydroxytryptamine receptor 2C (Homo sapiens, UniProt P28335)
T1 sequence (P28335 whole entry): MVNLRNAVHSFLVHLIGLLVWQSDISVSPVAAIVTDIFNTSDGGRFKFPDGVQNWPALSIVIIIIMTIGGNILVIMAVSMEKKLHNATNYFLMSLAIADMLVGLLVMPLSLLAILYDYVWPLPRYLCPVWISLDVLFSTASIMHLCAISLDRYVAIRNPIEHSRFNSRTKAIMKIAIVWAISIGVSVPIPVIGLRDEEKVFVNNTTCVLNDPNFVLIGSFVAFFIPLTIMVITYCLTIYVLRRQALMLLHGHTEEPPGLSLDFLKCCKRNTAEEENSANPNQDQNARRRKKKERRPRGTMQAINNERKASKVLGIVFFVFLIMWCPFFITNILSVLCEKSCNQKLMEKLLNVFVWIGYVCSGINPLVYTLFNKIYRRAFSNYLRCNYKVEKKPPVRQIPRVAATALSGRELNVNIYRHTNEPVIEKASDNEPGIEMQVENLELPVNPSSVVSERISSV

[3] = target: T2, Cholecystokinin receptor type A (Homo sapiens, UniProt P32238)
T2 sequence (P32238 whole entry): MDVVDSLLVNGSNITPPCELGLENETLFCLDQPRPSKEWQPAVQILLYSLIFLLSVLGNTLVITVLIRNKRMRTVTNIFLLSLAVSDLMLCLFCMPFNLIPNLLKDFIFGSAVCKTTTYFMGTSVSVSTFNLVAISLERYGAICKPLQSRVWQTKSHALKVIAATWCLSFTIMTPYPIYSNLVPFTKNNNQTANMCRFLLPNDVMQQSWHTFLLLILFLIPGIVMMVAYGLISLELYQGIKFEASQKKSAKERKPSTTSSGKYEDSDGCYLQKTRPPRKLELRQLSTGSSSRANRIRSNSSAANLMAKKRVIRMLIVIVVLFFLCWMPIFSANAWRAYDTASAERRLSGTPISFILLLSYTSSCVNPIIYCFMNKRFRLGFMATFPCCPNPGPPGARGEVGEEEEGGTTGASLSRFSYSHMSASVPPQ

[4] = target: Voltage-gated inwardly rectifying potassium channel KCNH2 (Homo sapiens, UniProt Q12809); assay type: functional; details: read-out: AC50
[5] = target: Delta-type opioid receptor (Homo sapiens, UniProt P41143)
[6] = target: T3, Amine oxidase [flavin-containing] A (Homo sapiens, UniProt P21397); assay type: functional
T3 sequence (P21397 whole entry): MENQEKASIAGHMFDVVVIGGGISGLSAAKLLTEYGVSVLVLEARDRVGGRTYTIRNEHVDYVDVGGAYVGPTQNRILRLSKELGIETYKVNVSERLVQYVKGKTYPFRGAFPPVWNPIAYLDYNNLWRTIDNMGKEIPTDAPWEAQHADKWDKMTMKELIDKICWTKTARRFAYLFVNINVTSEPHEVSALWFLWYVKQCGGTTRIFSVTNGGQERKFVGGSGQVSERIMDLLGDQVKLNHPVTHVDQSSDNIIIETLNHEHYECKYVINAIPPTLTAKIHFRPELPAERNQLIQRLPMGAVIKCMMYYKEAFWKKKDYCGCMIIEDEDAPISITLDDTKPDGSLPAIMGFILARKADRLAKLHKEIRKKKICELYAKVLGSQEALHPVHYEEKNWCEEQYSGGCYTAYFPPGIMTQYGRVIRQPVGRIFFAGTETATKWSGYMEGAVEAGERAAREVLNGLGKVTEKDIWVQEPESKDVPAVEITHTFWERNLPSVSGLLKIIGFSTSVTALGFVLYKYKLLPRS

[7] = target: Beta-1 adrenergic receptor (Homo sapiens, UniProt P08588); assay type: functional
Progesterone receptor = target: T4, Progesterone receptor (Homo sapiens, UniProt P06401)
T4 sequence (P06401 whole entry): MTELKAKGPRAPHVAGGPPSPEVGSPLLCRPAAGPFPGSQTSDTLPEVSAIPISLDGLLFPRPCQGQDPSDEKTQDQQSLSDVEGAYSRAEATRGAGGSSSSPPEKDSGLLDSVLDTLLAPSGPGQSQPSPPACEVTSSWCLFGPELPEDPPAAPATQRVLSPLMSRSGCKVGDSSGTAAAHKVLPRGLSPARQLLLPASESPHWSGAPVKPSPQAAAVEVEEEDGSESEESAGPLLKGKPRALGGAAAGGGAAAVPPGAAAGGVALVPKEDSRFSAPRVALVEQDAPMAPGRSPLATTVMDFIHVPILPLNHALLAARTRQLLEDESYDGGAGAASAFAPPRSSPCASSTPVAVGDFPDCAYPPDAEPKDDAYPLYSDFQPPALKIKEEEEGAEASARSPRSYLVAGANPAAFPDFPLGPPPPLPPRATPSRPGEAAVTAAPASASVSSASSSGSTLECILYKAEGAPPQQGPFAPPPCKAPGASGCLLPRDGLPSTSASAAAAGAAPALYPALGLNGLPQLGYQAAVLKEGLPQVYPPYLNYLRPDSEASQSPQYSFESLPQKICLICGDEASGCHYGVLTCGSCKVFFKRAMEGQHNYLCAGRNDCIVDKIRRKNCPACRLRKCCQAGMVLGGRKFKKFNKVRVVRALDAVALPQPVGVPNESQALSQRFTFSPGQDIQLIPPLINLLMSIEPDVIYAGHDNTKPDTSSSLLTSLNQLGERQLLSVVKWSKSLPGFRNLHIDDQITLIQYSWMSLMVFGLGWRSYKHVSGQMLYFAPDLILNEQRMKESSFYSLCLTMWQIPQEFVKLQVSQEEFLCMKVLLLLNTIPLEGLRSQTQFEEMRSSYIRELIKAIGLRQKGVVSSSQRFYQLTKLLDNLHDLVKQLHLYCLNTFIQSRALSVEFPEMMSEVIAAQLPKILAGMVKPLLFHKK

D(3) dopamine receptor = D(3) dopamine receptor (Homo sapiens, UniProt P35462)
Note: assay procedure not described here.

Sequence of Voltage-gated inwardly rectifying potassium channel KCNH2 (Q12809 whole entry): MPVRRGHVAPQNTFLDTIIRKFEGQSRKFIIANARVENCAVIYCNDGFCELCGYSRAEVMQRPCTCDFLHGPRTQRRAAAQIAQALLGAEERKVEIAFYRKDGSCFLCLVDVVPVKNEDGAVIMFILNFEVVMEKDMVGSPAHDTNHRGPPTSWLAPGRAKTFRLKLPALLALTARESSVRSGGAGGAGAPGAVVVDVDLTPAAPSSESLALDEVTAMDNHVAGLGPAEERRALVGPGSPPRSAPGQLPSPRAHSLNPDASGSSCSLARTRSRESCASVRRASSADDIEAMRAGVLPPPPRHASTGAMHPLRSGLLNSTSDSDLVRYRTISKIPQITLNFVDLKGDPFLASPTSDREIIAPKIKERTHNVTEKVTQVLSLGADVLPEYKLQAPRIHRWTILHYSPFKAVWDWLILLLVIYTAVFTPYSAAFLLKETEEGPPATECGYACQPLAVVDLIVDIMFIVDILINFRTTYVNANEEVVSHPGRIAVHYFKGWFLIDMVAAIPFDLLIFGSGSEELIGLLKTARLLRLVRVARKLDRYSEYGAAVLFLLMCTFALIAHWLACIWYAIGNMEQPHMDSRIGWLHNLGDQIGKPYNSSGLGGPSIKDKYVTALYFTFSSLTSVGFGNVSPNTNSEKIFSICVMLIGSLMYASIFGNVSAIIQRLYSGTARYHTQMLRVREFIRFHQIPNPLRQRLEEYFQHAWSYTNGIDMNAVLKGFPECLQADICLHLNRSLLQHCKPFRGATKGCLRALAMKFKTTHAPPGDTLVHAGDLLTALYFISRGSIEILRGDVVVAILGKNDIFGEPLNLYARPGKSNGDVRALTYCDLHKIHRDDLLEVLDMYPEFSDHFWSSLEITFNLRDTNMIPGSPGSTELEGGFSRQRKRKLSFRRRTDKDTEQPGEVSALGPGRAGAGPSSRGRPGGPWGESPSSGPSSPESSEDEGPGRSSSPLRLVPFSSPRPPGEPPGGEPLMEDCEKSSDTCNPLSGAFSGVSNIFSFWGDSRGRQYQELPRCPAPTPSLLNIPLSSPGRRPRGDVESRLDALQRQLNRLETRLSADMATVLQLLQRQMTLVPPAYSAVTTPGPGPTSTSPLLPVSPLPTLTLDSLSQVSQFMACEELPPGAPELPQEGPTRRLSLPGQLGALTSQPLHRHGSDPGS
Sequence of Beta-1 adrenergic receptor (P08588 whole entry): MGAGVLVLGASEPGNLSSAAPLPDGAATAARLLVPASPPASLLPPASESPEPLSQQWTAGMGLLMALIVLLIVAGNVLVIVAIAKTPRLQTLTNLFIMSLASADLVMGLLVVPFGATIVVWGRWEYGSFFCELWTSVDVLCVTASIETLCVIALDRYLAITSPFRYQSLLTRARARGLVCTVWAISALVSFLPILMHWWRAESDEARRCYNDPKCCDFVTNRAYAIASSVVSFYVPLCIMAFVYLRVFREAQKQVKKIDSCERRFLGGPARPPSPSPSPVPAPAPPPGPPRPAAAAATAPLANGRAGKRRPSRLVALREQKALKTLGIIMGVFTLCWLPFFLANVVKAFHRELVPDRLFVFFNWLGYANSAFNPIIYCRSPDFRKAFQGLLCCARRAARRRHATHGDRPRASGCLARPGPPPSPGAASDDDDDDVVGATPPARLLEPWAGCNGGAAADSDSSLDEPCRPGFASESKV
Sequence of D(1A) dopamine receptor (P21728 whole entry): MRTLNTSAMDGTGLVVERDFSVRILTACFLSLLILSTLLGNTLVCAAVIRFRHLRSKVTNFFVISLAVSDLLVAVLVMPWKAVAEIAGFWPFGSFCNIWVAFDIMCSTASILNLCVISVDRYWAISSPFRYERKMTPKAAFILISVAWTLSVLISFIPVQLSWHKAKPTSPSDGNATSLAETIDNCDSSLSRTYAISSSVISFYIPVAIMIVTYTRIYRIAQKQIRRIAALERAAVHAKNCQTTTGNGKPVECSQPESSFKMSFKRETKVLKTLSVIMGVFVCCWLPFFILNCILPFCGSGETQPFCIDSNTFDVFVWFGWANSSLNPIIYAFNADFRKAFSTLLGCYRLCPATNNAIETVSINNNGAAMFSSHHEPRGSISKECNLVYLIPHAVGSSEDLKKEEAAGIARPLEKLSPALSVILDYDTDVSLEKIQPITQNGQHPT
Sequence of Beta-2 adrenergic receptor (P07550 whole entry): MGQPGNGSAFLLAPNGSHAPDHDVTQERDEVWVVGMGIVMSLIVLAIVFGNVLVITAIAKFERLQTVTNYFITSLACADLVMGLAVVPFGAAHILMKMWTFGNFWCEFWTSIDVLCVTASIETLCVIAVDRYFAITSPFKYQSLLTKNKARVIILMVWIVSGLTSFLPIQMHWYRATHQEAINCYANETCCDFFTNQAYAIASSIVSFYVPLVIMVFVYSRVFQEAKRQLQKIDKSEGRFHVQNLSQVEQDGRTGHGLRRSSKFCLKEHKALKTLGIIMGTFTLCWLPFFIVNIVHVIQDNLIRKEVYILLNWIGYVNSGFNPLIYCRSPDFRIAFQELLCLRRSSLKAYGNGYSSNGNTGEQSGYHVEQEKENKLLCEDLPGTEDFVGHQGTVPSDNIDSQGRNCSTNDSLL
Sequence of Delta-type opioid receptor (P41143 whole entry): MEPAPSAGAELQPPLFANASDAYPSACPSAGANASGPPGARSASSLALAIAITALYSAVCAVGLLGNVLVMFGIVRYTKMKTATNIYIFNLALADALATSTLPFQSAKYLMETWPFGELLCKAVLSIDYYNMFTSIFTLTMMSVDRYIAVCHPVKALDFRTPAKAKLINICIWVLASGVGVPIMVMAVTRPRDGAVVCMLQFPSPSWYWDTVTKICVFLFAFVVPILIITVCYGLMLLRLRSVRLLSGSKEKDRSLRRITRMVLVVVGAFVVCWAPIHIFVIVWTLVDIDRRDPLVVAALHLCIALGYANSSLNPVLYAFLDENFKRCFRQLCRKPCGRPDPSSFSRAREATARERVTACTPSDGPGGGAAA
Sequence of D(3) dopamine receptor (P35462 whole entry): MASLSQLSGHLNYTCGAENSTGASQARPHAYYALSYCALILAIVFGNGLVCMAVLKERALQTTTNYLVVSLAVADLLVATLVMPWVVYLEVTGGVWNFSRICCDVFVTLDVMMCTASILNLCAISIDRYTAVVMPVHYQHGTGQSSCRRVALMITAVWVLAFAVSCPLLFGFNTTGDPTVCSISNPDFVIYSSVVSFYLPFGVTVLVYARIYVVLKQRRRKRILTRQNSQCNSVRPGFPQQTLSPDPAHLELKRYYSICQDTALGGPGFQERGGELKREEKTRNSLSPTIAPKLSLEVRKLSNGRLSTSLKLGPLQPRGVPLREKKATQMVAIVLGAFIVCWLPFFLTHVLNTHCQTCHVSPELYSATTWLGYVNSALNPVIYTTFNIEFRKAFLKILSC

SMILES | AC50 (D(1A) dopamine receptor) | AC50 [1] | AC50 [2] | AC50 [3] | AC50 [4] | AC50 [5] | AC50 [6] | AC50 [7] | AC50 (Progesterone receptor) | AC50 (D(3) dopamine receptor)
CCOCC(O)COc1ccc(NC(=O)CC[S+](C)C)cc1 (centres undefined) | > 30 µM | > 30 µM | > 30 µM | > 30 µM | > 30 µM | > 30 µM | > 30 µM | > 30 µM | – | –
CCC[C@@]1(CCc2ccccc2)CC(O)=C([C@H](CC)c2cccc(NS(=O)(=O)c3ccc(C(F)(F)F)cn3)c2)C(=O)O1 | > 30 µM | > 30 µM | > 30 µM | 27 µM | – | 16 µM | > 30 µM | > 30 µM | – | –
C=CC1=C(C(=O)O)N2C(=O)[C@@H](NC(=O)/C(=N\O)c3csc(N)n3)[C@H]2SC1 | > 10 µM | > 30 µM | > 30 µM | > 30 µM | > 30 µM | > 30 µM | > 10 µM | > 30 µM | – | –
CN(C)CCc1c[nH]c2ccc(CS(=O)(=O)N3CCCC3)cc12 [ALMOTRIPTAN] | > 30 µM | > 30 µM | > 30 µM | > 30 µM | 15 µM | > 30 µM | > 30 µM | > 30 µM | – | –
NCCCNCCSP(=O)(O)O [AMIFOSTINE] | > 30 µM | > 30 µM | > 30 µM | > 30 µM | > 30 µM | > 30 µM | > 30 µM | > 30 µM | – | –
CN(C)CCC=C1c2ccccc2CCc2ccccc21 [AMITRIPTYLINE] | > 10 µM | – | 0.15 µM | > 30 µM | – | > 30 µM | > 10 µM | 22.7 µM | > 30 µM | 0.147 µM
CN1CC2c3ccccc3Oc3ccc(Cl)cc3C2C1 (centres undefined) [ASENAPINE] | > 30 µM | > 30 µM | 0.0006 µM | > 30 µM | – | > 30 µM | > 30 µM | > 30 µM | – | –
Cn1cnc2c(F)c(Nc3ccc(Br)cc3F)c(C(=O)NOCCO)cc21 [BINIMETINIB] | > 30 µM | > 30 µM | > 30 µM | > 30 µM | – | > 30 µM | > 30 µM | > 30 µM | – | –
C[C@H](CS)C(=O)N1CCC[C@H]1C(=O)O [CAPTOPRIL] | > 30 µM | > 30 µM | > 30 µM | > 30 µM | – | > 30 µM | > 10 µM | > 10 µM | – | –
CN(C)CCOC(c1ccc(Cl)cc1)c1ccccn1 (centres undefined) [CARBINOXAMINE] | > 30 µM | > 30 µM | > 30 µM | > 30 µM | 1.3 µM | > 30 µM | > 30 µM | – | – | –
CCN(CC)CCn1c(=O)c(Cc2ccc(OC)cc2)nc2ccccc21 [CAROVERINE] | > 30 µM | > 30 µM | 27 µM | > 30 µM | 0.16 µM | 26 µM | > 30 µM | > 30 µM | – | –
O=c1[nH]cc(F)c(=O)[nH]1 [FLUOROURACIL] | – | – | – | > 30 µM | > 30 µM | – | – | > 30 µM | > 30 µM | > 30 µM
OCCOCCN1CCN(C(c2ccccc2)c2ccc(Cl)cc2)CC1 (centres undefined) [HYDROXYZINE] | > 10 µM | > 30 µM | > 30 µM | > 30 µM | – | > 30 µM | > 10 µM | > 10 µM | – | –
Nc1nnc(-c2cccc(Cl)c2Cl)c(N)n1 [LAMOTRIGINE] | > 30 µM | > 30 µM | > 30 µM | > 30 µM | – | > 30 µM | 16 µM | > 10 µM | – | –
CC(=O)NC[C@H]1CN(c2ccc(N3CCOCC3)c(F)c2)C(=O)O1 [LINEZOLID] | – | > 30 µM | > 30 µM | – | > 30 µM | > 30 µM | > 30 µM | > 30 µM | – | –
CCCCCCO[C@@H](C)c1cccc(-c2csc(NC(=O)c3cc(Cl)c(/C=C(\C)C(=O)O)c(Cl)c3)n2)c1OC [LUSUTROMBOPAG] | – | – | – | – | 4.9 µM | – | – | – | 9.34 µM | 8.41 µM
Cc1cc(C)cc(OCC2CNC(=O)O2)c1 (centres undefined) [METAXALONE] | – | – | – | – | > 30 µM | – | – | – | > 30 µM | > 30 µM
CO[C@@]1(NC(=O)C(C(=O)O)c2ccc(O)cc2)C(=O)N2C(C(=O)O)=C(CSc3nnnn3C)CO[C@@H]21 (some centres undefined) [MOXALACTAM] | – | – | – | – | > 30 µM | – | – | – | > 30 µM | > 30 µM
CO[C@@H]1[C@@H](OC(N)=O)[C@@H](O)[C@H](Oc2ccc3c(O)c(NC(=O)c4ccc(O)c(CC=C(C)C)c4)c(=O)oc3c2C)OC1(C)C [NOVOBIOCIN] | > 30 µM | > 30 µM | > 30 µM | > 30 µM | – | > 30 µM | > 30 µM | > 30 µM | – | –
CC1=C(C/C=C(\C)CCC[C@H](C)CCC[C@H](C)CCCC(C)C)C(=O)c2ccccc2C1=O [PHYTONADIONE] | – | – | – | – | > 30 µM | – | – | – | > 30 µM | > 30 µM
NC(=O)C1(N2CCCCC2)CCN(CCCC(=O)c2ccc(F)cc2)CC1 [PIPAMPERONE] | – | – | – | – | 1.9 µM | – | – | – | > 30 µM | 1.77 µM
COc1cccc2c1C(=O)c1c(O)c3c(c(O)c1C2=O)C[C@@](O)(C(=O)CO)C[C@@H]3O[C@H]1C[C@H](N)[C@H](O[C@@H]2CCCCO2)[C@H](C)O1 [PIRARUBICIN] | – | – | – | – | > 30 µM | – | – | – | > 30 µM | > 30 µM
CC(C)(Oc1ccc(Cl)cc1)C(=O)NC(=O)NCN1CCOCC1 [PLAFIBRIDE] | – | – | – | – | > 30 µM | – | – | – | > 30 µM | > 30 µM
CC(C)NC[C@H](O)COc1ccc(O)cc1 [PRENALTEROL] | – | – | – | – | > 30 µM | – | – | – | > 30 µM | > 30 µM
CN1CCC(N(Cc2cccs2)c2ccccc2)CC1 [THENALIDINE] | – | – | – | – | 2.9 µM | – | – | – | > 30 µM | 4.46 µM
Cc1ccc(C(C)C)c(O)c1 [THYMOL] | – | – | 170 µM | – | > 30 µM | – | – | – | > 30 µM | > 30 µM
Cc1cccc(C)c1NC(=O)c1cc(S(N)(=O)=O)c(Cl)cc1O [XIPAMIDE] | – | – | – | – | > 30 µM | – | – | – | > 30 µM | > 30 µM
